Experimental data from patent US8148092B2, “System and method for performing G protein coupled receptor (GPCR) cell assays using waveguide-grating sensors” (Corning Incorporated, priority 2005, dated 2012).

Assays:
CHO cells = test: optical LID (waveguide grating biosensor) mass redistribution response of adherent CHO cells after compound addition; assay type: cell-based, Chinese Hamster; conditions: for ligand-induced mass redistribution signal (total change in response): CHO cells, compound 10 μM, FIGS. 13, 15, 18
Source text: Referring to FIG. 3, there is shown a flowchart illustrating the basic steps of a method 300 for monitoring in real time the mass redistribution due to an agonist-induced GPCR activation within living cells 108 using an optical LID biosensor 104 in accordance with the present invention. The method 300 includes the following steps: (a) provide an optical LID biosensor 104 (step 302); (b) place a certain number of living cells 108 in a medium which covers the optical LID biosensor 104 such that the living cells 108 attach onto the surface 110 of the optical LID biosensor 104 (step 304); (c) optionally apply a buffer solution at least once into the cell medium (step 306); (d) apply a solution containing a compound (agonist) into the cell medium (step 308); and (e) interrogate the optical LID biosensor 104 and monitor the time dependent optical response 201 of the living cells 108 cultured on the optical LID biosensor 104 (step 310).
It is known that CHO cells 108 endogenously express beta adrenergic receptors, alpha2-adrenergic receptors, P2Y receptors, as well as beta-arrestin and GRKs. It is also known that muscarinic receptors are endogenously expressed at very low level in the CHO cells 108. In this experiment, approximately ˜5×10^4 CHO cells 108 were placed within each well of a microplate that contained an array of optical LID biosensors 104. The CHO cells 108 were then cultured in 150 μl serum medium for 24 hours to ensure that the CHO cells 108 became adherent to the substrate surface 110.
Since muscarinic receptors are endogenously expressed at very low level in CHO cells 108; oxotremorine M, agonist for muscarinic receptors, served as a control. Each of these agonists was directly applied to a different one of the wells which contained the serum medium. The optical responses were then collected by the optical LID system 100.

[1] = system: CHO cells with stably overexpressed rat muscarinic receptor subtype 1 (M1 CHO); test: optical LID mass redistribution response of CHO cells with stably overexpressed rat muscarinic receptor subtype 1 after compound addition; assay type: cell-based, Chinese Hamster; conditions: compound 10 μM, compared with CHO cells, FIGS. 14, 15, 18
Description: FIG. 14 a time-dependent LID response of engineered Chinese Hamster Ovary (CHO) cells with over-expressed rat muscarnic receptor subtype 1 (thus this cell line is termed as M1 CHO) before and after compound addition. The compound concentration used is 10 μM for all compounds.

CCNC(=O)[C@H]1O[C@@H](n2cnc3c(N)ncnc32)[C@H](O)[C@@H]1O [NECA]
ligand-induced mass redistribution signal (total change in response) (CHO cells): results in mass redistribution signals
ligand-induced mass redistribution signal (total change in response) [1]: results in mass redistribution signals

Clc1cccc(Cl)c1N=C1NCCN1 [clonidine]
ligand-induced mass redistribution signal (total change in response) (CHO cells): induced mass redistribution signals

C[N+](C)(C)CC#CCN1CCCC1=O [oxotremorine M]
agonist-induced time-dependent optical LID response (CHO cells; CHO cells in serum medium, ATP 100 μM, epinephrine 100 μM, clonidine 10 μM, oxotremorine M 10 μM, FIG. 10): almost no cell response
ligand-induced mass redistribution signal (total change in response) [1]: significantly larger responses in M1-CHO cells

Cc1scc2c1N(C(=O)CN1CCN(C)CC1)c1ccccc1NC2=O [telenzepine]
ligand-induced mass redistribution signal (total change in response) [1]: not its antagonist (telenzepine) results in significantly larger responses
